Data set [1] concerns Escherichia coli expressing NDM-1 (CLB30005, CLB30016). In kind it is cell-based. The note with it: with imipenem 1 μg/ml; 95% inhibition of bacterial growth. The gist of the method:
(§1)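 Clinical strains were grown overnight at 35 °C on blood agar, adjusted to set OD600 in saline and diluted 1:100 into 1.1× CAMHB. Inhibitor was tested with and without imipenem at 1 μg/ml. After 22–24 h at 35 °C, absorbance was read to give synergistic concentration.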

The test system of data set [2] is Serratia marcescens expressing IMP-1 (CL5741). The format is cell-based. The note with it: with imipenem 1 μg/ml; 95% inhibition of bacterial growth. The gist of the method:
as §1

Data set [3] concerns Pseudomonas aeruginosa PAO1 MB9798 (efflux+, IMP-1). The note with it: ratio MITC95 PA 9798/MITC95 PA 9799; imipenem at 2 μg/mL. In a few lines: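 Isogenic PAO1 pair (efflux+ MB9798, efflux− MB9799, both IMP-1) tested by microbroth MIC with fixed imipenem and/or ceftazidime, usually at CLSI breakpoint, plus fixed class A/C inhibitor against AmpC. MBL inhibitor titrated; concentration restoring susceptibility recorded and fold difference between strains taken as efflux extent.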

The structures appear in SMILES notation. Structures can show the parent of a compound that is named as a salt.

Regarding `C[N+]1(CCN)CC[C@H](NS(=O)(=O)c2ccc(-c3cccc4[nH]c(N)nc34)c(-c3nn[nH]n3)c2S(N)(=O)=O)C1` (stereo partly drawn) [Example 249, (3S)-3-{[4-(2-amino-1H-1,3-benzodiazol-4-yl)-2-sulfamoyl-3-(2H-1,2,3,4-tetrazol-5-yl)benzene]sulfonamido}-1-(2-aminoethyl)-1-methylpyrrolidin-1-ium methaneperoxoate], the “Escherichia coli (NDM-1) MITC95” value in data set [1] was 0.3906 µM. Further, the “Serratia marcescens (IMP-1) MITC95” value in data set [2] was 1.563 µM.

Consider `NCC(=O)NC1CCC[C@@H](c2ccc(S(=O)(=O)N[C@@H]3CCNC3)c(S(N)(=O)=O)c2-c2nn[nH]n2)C1` (stereo partly drawn) [Example 270, 2-Amino-N-((3R)-3-(4-(N—((R)-pyrrolidin-3-yl)sulfamoyl)-3-sulfamoyl-2-(2H-tetrazol-5-yl)phenyl)cyclohexyl)acetamide], for which the “Escherichia coli (NDM-1) MITC95” value in data set [1] was 1.563 µM. In addition, the Efflux ratio in data set [3] is 1.00.

`C[C@@H](N)c1nc2c(-c3ccc(S(=O)(=O)N[C@@H]4CCNC4)c(S(N)(=O)=O)c3-c3nn[nH]n3)cccc2[nH]1` [Example 273, 4-(2-((R)-1-aminoethyl)-1H-benzo[d]imidazol-4-yl)-N1-((R)-pyrrolidin-3-yl)-3-(2H-tetrazol-5-yl)benzene-1,2-disulfonamide]: the “Escherichia coli (NDM-1) MITC95” value in data set [1] was 1.563 µM. In addition, the Efflux ratio in data set [3] was determined as 1.00.

On to `NCc1nc2cc(-c3ccc(S(=O)(=O)N[C@@H]4CCNC4)c(S(N)(=O)=O)c3-c3nn[nH]n3)ccc2[nH]1` [Example 274, (R)-4-(2-(aminomethyl)-1H-benzo[d]imidazol-5-yl)-N1-(pyrrolidin-3-yl)-3-(2H-tetrazol-5-yl)benzene-1,2-disulfonamide], for which the “Escherichia coli (NDM-1) MITC95” value in data set [1] came out at 0.7813 µM. In addition, the Efflux ratio in data set [3] is given as 1.00.

Turning to `Nc1cccc(-c2ccc(S(=O)(=O)N[C@@H]3CCNC3)c(S(N)(=O)=O)c2-c2nn[nH]n2)n1` [Example 277, (R)-4-(6-aminopyridin-2-yl)-N1-(pyrrolidin-3-yl)-3-(2H-tetrazol-5-yl)benzene-1,2-disulfonamide], the “Escherichia coli (NDM-1) MITC95” value in data set [1] came to 0.7813 µM. For the same compound, in data set [3], the Efflux ratio turned out to be 1.00.

With `NCc1nc2c(-c3ccc(S(=O)(=O)N[C@@H]4CCNC4)c(S(N)(=O)=O)c3-c3nn[nH]n3)cccc2[nH]1` [Example 283, (R)-4-(2-(aminomethyl)-1H-benzo[d]imidazol-4-yl)-N1-(pyrrolidin-3-yl)-3-(2H-tetrazol-5-yl)benzene-1,2-disulfonamide], the “Escherichia coli (NDM-1) MITC95” value in data set [1] was found to be 0.7813 µM. The Efflux ratio in data set [3] is listed as 1.00.

With `NS(=O)(=O)c1c(S(=O)(=O)N[C@@H]2CCNC2)ccc(-c2cccn3ccnc23)c1-c1nn[nH]n1` [Example 291, (R)-4-(imidazo[1,2-a]pyridin-8-yl)-N1-(pyrrolidin-3-yl)-3-(2H-tetrazol-5-yl)benzene-1,2-disulfonamide], the “Escherichia coli (NDM-1) MITC95” value in data set [1] came to 0.7813 µM. The Efflux ratio in data set [3] is listed as 1.00.

In the case of `NC(=O)c1nc2c(-c3ccc(S(=O)(=O)N[C@H]4CCNC4)c(S(N)(=O)=O)c3-c3nn[nH]n3)cccc2[nH]1` [Example 292, (S)-4-(4-(N-(pyrrolidin-3-yl)sulfamoyl)-3-sulfamoyl-2-(2H-tetrazol-5-yl)phenyl)-1H-benzo[d]imidazole-2-carboxamide], in data set [1], the “Escherichia coli (NDM-1) MITC95” value turned out to be 1.563 µM. Also, the Efflux ratio in data set [3] worked out at 0.50.

Consider `NCc1nc2c(-c3ccc(S(=O)(=O)NC[C@H](O)CN)c(S(N)(=O)=O)c3-c3nn[nH]n3)cccc2[nH]1` [Example 299, (R)—N1-(3-amino-2-hydroxypropyl)-4-(2-(aminomethyl)-1H-benzo[d]imidazol-4-yl)-3-(2H-tetrazol-5-yl)benzene-1,2-disulfonamide], for which the “Escherichia coli (NDM-1) MITC95” value in data set [1] came out at 0.7813 µM. The Efflux ratio in data set [3] was 1.00.

In the case of `NCc1nc2c(-c3ccc(S(=O)(=O)NC[C@@H]4CNCCN4)c(S(N)(=O)=O)c3-c3nn[nH]n3)cccc2[nH]1` [Example 311, (S)-4-(2-(aminomethyl)-1H-benzo[d]imidazol-4-yl)-N-(piperazin-2-ylmethyl)-3-(2H-tetrazol-5-yl)benzene-1,2-disulfonamide], the “Escherichia coli (NDM-1) MITC95” value in data set [1] came out at 1.563 µM. In addition, the “Serratia marcescens (IMP-1) MITC95” value in data set [2] was found to be 1.563 µM.

`Nc1nc2c(-c3ccc(S(=O)(=O)NC[C@H]4CNCCN4)c(S(N)(=O)=O)c3-c3nn[nH]n3)cccc2[nH]1` [Example 314, (R)-4-(2-amino-1H-benzo[d]imidazol-4-yl)-N1-(piperazin-2-ylmethyl)-3-(2H-tetrazol-5-yl)benzene-1,2-disulfonamide]: the “Escherichia coli (NDM-1) MITC95” value in data set [1] is 0.7813 µM. Further, the Efflux ratio in data set [3] is listed as 1.00.

For the compound `N[C@H](CO)c1nc2c(-c3ccc(S(=O)(=O)N[C@H]4CNC[C@H]4N)c(S(N)(=O)=O)c3-c3nn[nH]n3)cccc2[nH]1` [Example 323, 4-(2-((S)-1-amino-2-hydroxyethyl)-1H-benzo[d]imidazol-4-yl)-N1-((3S,4R)-4-aminopyrrolidin-3-yl)-3-(2H-tetrazol-5-yl)benzene-1,2-disulfonamide], the “Escherichia coli (NDM-1) MITC95” value in data set [1] was 1.563 µM. In data set [3], the Efflux ratio was 1.00.

Consider `NCCNS(=O)(=O)c1ccc(-c2cccc3[nH]c([C@@H](N)CO)nc23)c(-c2nn[nH]n2)c1S(N)(=O)=O` [Example 331, (R)-4-(2-(1-amino-2-hydroxyethyl)-1H-benzo[d]imidazol-4-yl)-N1-(2-aminoethyl)-3-(2H-tetrazol-5-yl)benzene-1,2-disulfonamide], for which the “Escherichia coli (NDM-1) MITC95” value in data set [1] stood at 1.563 µM. Moreover, the Efflux ratio in data set [3] worked out at 1.00.

`NCCNS(=O)(=O)c1ccc(-c2cccc3ncccc23)c(-c2nn[nH]n2)c1S(N)(=O)=O` [Example 360, N1-(2-aminoethyl)-4-(quinolin-5-yl)-3-(2H-tetrazol-5-yl)benzene-1,2-disulfonamide]: the “Escherichia coli (NDM-1) MITC95” value in data set [1] came to 1.563 µM. In addition, the “Serratia marcescens (IMP-1) MITC95” value in data set [2] turned out to be 1.563 µM.

On to `Nc1nc2c(-c3ccc(S(=O)(=O)NC[C@@]4(N)CCNC4)c(S(N)(=O)=O)c3-c3nn[nH]n3)cccc2s1` [Example 367, (R)-4-(2-aminobenzo[d]thiazol-4-yl)-N1-((3-aminopyrrolidin-3-yl)methyl)-3-(2H-tetrazol-5-yl)benzene-1,2-disulfonamide], for which the “Escherichia coli (NDM-1) MITC95” value in data set [1] is 1.563 µM. Moreover, the Efflux ratio in data set [3] is on record as 0.50.

In the case of `C[C@H](CN)NS(=O)(=O)c1ccc(-c2cccc3[nH]c(CN)nc23)c(-c2nn[nH]n2)c1S(N)(=O)=O` [Example 383, (R)-4-(2-(aminomethyl)-1H-benzo[d]imidazol-4-yl)-N1-(1-aminopropan-2-yl)-3-(2H-tetrazol-5-yl)benzene-1,2-disulfonamide], the “Escherichia coli (NDM-1) MITC95” value in data set [1] turned out to be 0.7813 µM. The Efflux ratio in data set [3] is recorded as 1.00.

Take `C[C@H](CN)NS(=O)(=O)c1ccc(-c2cccn3ccnc23)c(-c2nn[nH]n2)c1S(N)(=O)=O` [Example 384, (R)—N1-(1-aminopropan-2-yl)-4-(imidazo[1,2-a]pyridin-8-yl)-3-(2H-tetrazol-5-yl)benzene-1,2-disulfonamide]: the “Escherichia coli (NDM-1) MITC95” value in data set [1] was determined as 1.563 µM. Also, the Efflux ratio in data set [3] was determined as 0.50.

`Nc1nc2c(-c3ccc(S(=O)(=O)NCC4(O)CNC4)c(S(N)(=O)=O)c3-c3nn[nH]n3)cccc2s1` [Example 387, 4-(2-amino-1,3-benzothiazol-4-yl)-N^1-[(3-hydroxyazetidin-3-yl)methyl]-3-(2H-tetrazol-5-yl)benzene-1,2-disulfonamide]: in data set [1], the “Escherichia coli (NDM-1) MITC95” value came to 1.563 µM. In addition, the “Serratia marcescens (IMP-1) MITC95” value in data set [2] worked out at 1.563 µM.

On to `C[N+](C)(C)CCCNS(=O)(=O)c1ccc(-c2cccc3sc(N)nc23)c(-c2nnn[nH]2)c1S(N)(=O)=O` [Example 392, 3-({[4-(2-amino-1,3-benzothiazol-4-yl)-2-sulfamoyl-3-(1H-tetrazol-5-yl)phenyl]sulfonyl}amino)-N,N,N-trimethylpropan-1-amimum trifluoroacetate], for which the “Escherichia coli (NDM-1) MITC95” value in data set [1] worked out at 3.125 µM. The “Serratia marcescens (IMP-1) MITC95” value in data set [2] was 3.125 µM.

Take `C[C@@H](CN)NS(=O)(=O)c1ccc(-c2ccnc(N)c2)c(-c2nn[nH]n2)c1S(N)(=O)=O` [Example 398, (S)-N^1-(1-aminopropan-2-yl)-4-(2-aminopyridin-4-yl)-3-(2H-tetrazol-5-yl)benzene-1,2-disulfonamide]: the “Escherichia coli (NDM-1) MITC95” value in data set [1] is 3.125 µM. In addition, the “Serratia marcescens (IMP-1) MITC95” value in data set [2] came out at 1.563 µM.

Turning to `NCC(CN)NS(=O)(=O)c1ccc(-c2cccc3[nH]nnc23)c(-c2nn[nH]n2)c1S(N)(=O)=O` [Example 403, 4-(1H-benzo [d][1,2,3]triazol-4-yl)-N^1-(1,3-diaminopropan-2-yl)-3-(2H-tetrazol-5-yl)benzene-1,2-disulfonamide], in data set [1], the “Escherichia coli (NDM-1) MITC95” value amounted to 1.563 µM. Also, in data set [2], the “Serratia marcescens (IMP-1) MITC95” value came out at 1.563 µM.

On to `NS(=O)(=O)c1c(S(=O)(=O)N[C@@H]2CNC[C@@H]2O)ccc(-c2cccc3[nH]nnc23)c1-c1nn[nH]n1` [Example 412, 4-(1H-benzo[d][1,2,3]triazol-4-yl)-N^1-((3R,4S)-4-hydroxypyrrolidin-3-yl)-3-(2H-tetrazol-5-yl)benzene-1,2-disulfonamide], for which the “Escherichia coli (NDM-1) MITC95” value in data set [1] was 3.125 µM. Besides, the “Serratia marcescens (IMP-1) MITC95” value in data set [2] was 3.125 µM.

On to `NCc1sc(N)nc1-c1cccc(-c2ccc(S(=O)(=O)N[C@@H]3CCNC3)c(S(N)(=O)=O)c2-c2nnn[nH]2)c1` [Example 432, (R)-3′-(2-amino-5-(aminomethyl)thiazol-4-yl)-N^4-(pyrrolidin-3-yl)-2-(1H-tetrazol-5-yl)-[1,1′-biphenyl]-3,4-disulfonamide], for which, in data set [1], the “Escherichia coli (NDM-1) MITC95” value is 0.7813 µM. In addition, the “Serratia marcescens (IMP-1) MITC95” value in data set [2] was determined as 0.7813 µM.

These data come from patent publication US10544130B2, “Metallo-beta-lactamase inhibitors” (priority 2015, dated 2020).
